# Measurements published in patent publication US10070660B2, “Pet food palatability with antimicrobial properties based on organic acids” (KEMIN INDUSTRIES, INC., priority 2012, dated 2018).
# Entries after “also recorded” stand apart in the source; their conditions may differ.
# How the values were obtained:
# [1] = tested on: Salmonella enterica subsp. enterica (ATCC 51741); test: Microplate assay, inhibition of S. enterica growth in modified TSB (OD600 over 48 h); assay type: cell-based; settings: microtiter plate, 0.025-0.100% in TSB, 37 C
# Description: FIG. 1 is a chart of the effect of fumaric acid (0%; 0.025%; 0.050%; 0.100%) on the growth of Salmonella enterica ser. Infantis in modified tryptic soy broth (pH 4.93) for 48 hours at 37° C.
# Salmonella enterica subsp. enterica (ATCC® 51741™), was obtained from the American Type Culture Collection (ATCC®) and kept as a frozen stock at −70° C. in Bacto™ Tryptic Soy Broth (TSB) with 20% (w/v) glycerol. One vial of the frozen stock culture was thawed at room temperature and 0.100 mL was transferred to 100 mL TSB (pH 7.2) containing (g/l) pancreatic digest of casein: 17, enzymatic digest of soybean meal: 3, sodium chloride, 5, dipotassium phosphate: 2.5, dextrose, 2.5, then incubated at 37° C. for 24 hours on a platform shaker set at 190 rpm. […]
# A 0.20% stock solution of fumaric acid was made by dissolving 0.100 g (w/v) fumaric acid in 50 ml sterile deionized water in a flask. […] The pH of each fumaric-TSB solution was measured (Table 1). […] The microplate was placed in a Versamax Microplate Reader (Molecular Devices) (37° C.) with wavelength set to 600 nm. The optical density (OD600) was read every 2 hours for 48 hours.
# Solutions of fumaric acid at three different concentrations (Table 3) were evaluated for inhibition of S. enterica growth in vitro using a microplate assay and measuring optical density over time (FIG. 1).
# [2] = tested on: Salmonella (five Salmonella enterica serovars); test: Cat kibble challenge with dried five strain Salmonella cocktail inoculum; assay type: cell-based
# Description: One ml of each Salmonella culture was separately inoculated into a beaker containing tempered (ambient), sterilized MBM which was then incubated at 37° C. for 48 hours. Inoculated MBM was dispensed (approx. 200 g) into sterile 250 ml centrifuge bottles and centrifuged at 5,000 rpm for 10 minutes. The supernatant was decanted and autoclaved for disposal. The pellets were suspended in 10 ml TSB-20% glycerol. Suspensions (approximately 150-160 g) were transferred to sterilized 250 ml polycarbonate straight side wide mouth jars with lids (Nalgene, Thermo Scientific). Jars containing MBM-Salmonella suspensions were immediately frozen at −70° C. for 1 hour. Frozen MBM-Salmonella suspensions were lyophilized using a FreeZone-1 Liter benchtop freeze dry system (Labconco) (approx. 96 hours, −50° C.). Each lyophilized Salmonella culture was pulverized to a fine powder using a sterile mortar and pestle. Twenty g of each of the five lyophilized Salmonella cultures was combined in a sterile wide mouth glass jar to make the dried Salmonella cocktail inoculum. […] Solidified plates were incubated inverted at 37° C. for 16-18 hours. Visible colonies were counted and colony forming units per gram were calculated (CFU/g). […] Kibble and inoculum were mixed together for five minutes by hand in a plastic zip top bag, and allowed to rest for 1 hour prior to sampling. Coated, un-inoculated kibble was also included in the study and tested for Salmonella (direct plating and FDA BAM), total aerobic bacteria, mold and yeast counts, pH, percent moisture, and water activity. For each analysis time point challenged kibble was sampled in triplicate. Kibbles were stored at ambient temperature.
# Challenged kibble samples bags were mixed thoroughly, then 5.00 g (±0.01) was aseptically weighed into a sterile plastic bag and diluted with 45 ml sterile Phosphate Buffer (Butterfield) diluent (BPB) containing (g/l) KH2PO4 34.0, pH adjusted to 7.2 with 1N sodium hydroxide and homogenized using a Stomacher (Seward Stomacher 80) for 1 minute and serially diluted in BPB for plating. The plates are poured with tempered (45° C.) XLD agar. After solidification, plates were inverted and placed in an incubator (37° C.). Colonies were counted and CFU/g was calculated. The counts for each triplicate sample were averaged and expressed as log CFU/g. Those samples of which were below the detection limit of <10 CFU/g were assigned 0 log CFU/g for the purpose of statistical analysis. Analysis of Variance using the LSD separation of means method was performed to analyze the data using StatGraphics software (StatPoint Technologies, Inc. Warrenton, Va.).
# All procedures for the Phase 3 kibble challenge were conducted as described for Phase 2.
# [3] = pH of fumaric acid-TSB solutions; assay type: physicochemical
# Description: A 0.20% stock solution of fumaric acid was made by dissolving 0.100 g (w/v) fumaric acid in 50 ml sterile deionized water in a flask. The 0.20% stock was diluted 1:2 in sterile deionized water to obtain a 0.10% fumaric acid solution, which was then diluted 1:2 to obtain a 0.05% fumaric acid solution. Each fumaric acid stock solution (0.20%, 0.10% and 0.05%) was further diluted 1:2 in TSB (pH 4.9) to yield fumaric acid-TSB solutions of 0.100%, 0.050% and 0.025%. The pH of each fumaric-TSB solution was measured (Table 1). One hundred μl of each fumaric-TSB solution was added to triplicate wells containing 100 μl standardized inoculum. One hundred μl of untreated (0% fumaric) TSB (pH 4.9) was added to triplicate wells containing 100 μl standardized inoculum as a control. The microplate was placed in a Versamax Microplate Reader (Molecular Devices) (37° C.) with wavelength set to 600 nm. The optical density (OD600) was read every 2 hours for 48 hours.
structure (smiles),measurement,setting,value
"O=C(O)/C=C/C(=O)O [Fumaric Acid, fumaric acid]",inhibition of S. enterica growth in vitro (in words),[1],effective antimicrobial agent
same,Salmonella,"[2]; Table 4, 0.21% on cat kibble, day 0",2.79 ± 0.35^Aa log CFU/g
same,Salmonella,"[2]; Table 4, 0.21% on cat kibble, day 1",2.85 ± 0.07^Aa log CFU/g
same,Salmonella,"[2]; Table 4, 0.21% on cat kibble, day 8",2.02 ± 0.13^Bab log CFU/g
same,Salmonella,"[2]; Table 4, 0.21% on cat kibble, day 14",1.44 ± 0.24^Bbc log CFU/g
same,Salmonella,"[2]; Table 4, 0.21% on cat kibble, day 22",0.77 ± 0.39^Bc log CFU/g
same,Salmonella,"[2]; Table 5, 0.30% on cat kibble, day 0",2.44 ± 0.21^Aa log CFU/g
same,Salmonella,"[2]; Table 5, 0.30% on cat kibble, day 1",1.26 ± 0.14^Bab log CFU/g
same,Salmonella,"[2]; Table 5, 0.30% on cat kibble, day 5",0.57 ± 0.57^Bb log CFU/g
same,Salmonella,"[2]; Table 5, 0.41% on cat kibble, day 0",1.46 ± 0.09^Ba log CFU/g
same,Salmonella,"[2]; Table 5, 0.41% on cat kibble, day 1, below detection limit assigned 0",0.0 ± 0.0^Cb* log CFU/g
same,Salmonella,"[2]; Table 5, 0.41% on cat kibble, day 5, below detection limit assigned 0",0.0 ± 0.0^Bb* log CFU/g
same,Salmonella,"[2]; Table 12, 0.50% total acid on cat kibble, day 0",3.38 ± 0.02^Ba log CFU/g
same,Salmonella,"[2]; Table 12, 0.50% total acid on cat kibble, day 1",1.98 ± 0.02^Bb log CFU/g
same,Salmonella,"[2]; Table 12, 0.50% total acid on cat kibble, day 5",1.10 ± 0.10^Bc log CFU/g
same,Salmonella,"[2]; Table 12, 0.50% total acid on cat kibble, day 7",0.33 ± 0.33^Bd log CFU/g
same,Salmonella,"[2]; Table 12, 0.50% total acid on cat kibble, day 14",0.33 ± 0.33^Bd log CFU/g
same,Salmonella,"[2]; Table 12, 0.50% total acid on cat kibble, day 21",0.00 ± 0.00^Bd log CFU/g
same,Salmonella counts on challenged cat kibble vs control palatant (in words),[2]; cat kibble challenge,significant efficacy against Salmonella spp; also recorded: significantly lower Salmonella counts; also recorded: demonstrated antimicrobial activity; also recorded: significant reduction in Salmonella count; also recorded: dose response
same,Salmonella counts,"[2]; highest level of fumaric acid on cat kibble, after 1 day, detection limit",< 10 CFU/g
same,pH in TSB,[3]; 0.025% fumaric acid,4.67
same,pH in TSB,[3]; 0.050% fumaric acid,4.42
same,pH in TSB,[3]; 0.100% fumaric acid,4.06
